Active and inactive are the calls of the source. The rule behind the calls is not given here.
What was measured:
[1] = Modulation of gamma-secretase expressed in CHO cells co-expressing polyhistidine-tagged APP695NL I-his with FAD-linked Swedish and London mutation assessed as reduction in amyloid beta42 production after 2 hrs by ELISA; assay type: cell-based
[2] = Modulation of gamma-secretase expressed in CHO cells co-expressing APP V717F mutant assessed as reduction in amyloid beta42 production after 17 hrs by ELISA; assay type: cell-based
[3] = Drug uptake in wild type CF1 mouse brain at 30 mg/kg, po after 4 hrs; assay type: ADME, organism-based; design: dose 30 mg/kg, route oral; settings: read-out: Drug uptake
[4] = test system: Mus musculus; assay: Inhibition of gamma-secretase-mediated cleavage of APP in wild type CF1 mouse brain assessed as inhibition of amyloid beta42 production at 30 mg/kg, po after 4 hrs by ELISA; assay type: functional
[5] = Drug uptake in wild type CF1 mouse plasma at 30 mg/kg, po after 4 hrs; assay type: ADME, organism-based; design: dose 30 mg/kg, route oral
[6] = Oral bioavailability in wild type CF1 mouse; assay type: ADME, organism-based; settings: in vivo
[7] = Clearance in wild type CF1 mouse; assay type: ADME, organism-based; settings: in vivo
[8] = Half life in wild type CF1 mouse; assay type: ADME, organism-based; settings: in vivo
[9] = Drug uptake in wild type CF1 mouse brain at 50 mg/kg, po after 4 hrs; assay type: ADME, organism-based; design: dose 50 mg/kg, route oral; settings: read-out: Drug uptake
[10] = Drug uptake in wild type CF1 mouse plasma at 50 mg/kg, po after 4 hrs; assay type: ADME, organism-based; design: dose 50 mg/kg, route oral
[11] = test system: Mus musculus; assay: Inhibition of gamma-secretase-mediated cleavage of APP in wild type CF1 mouse brain assessed as inhibition of amyloid beta42 production at 50 mg/kg, po after 4 hrs by ELISA; assay type: functional
[12] = test system: Nucleic Acid; assay: Ratio of drug level in brain in wild type CF1 mouse to EC50 for gamma-secretase expressed in CHO cells; assay type: cell-based
[13] = test system: MC-IXC/H4; assay: Inhibition of Notch intracellular domain in human MC-IXC/H4 cells assessed as reduction in HES1 protein expression at 10 uM after 24 hrs Western blotting; assay type: cell-based

SMILES: C[C@@H](C(=O)O)c1ccc(-c2ccccc2)c(F)c1 [TARENFLURBIL]
- EC50 [1]: 300 µM

SMILES: CC(C)CCC(c1ccc(CC(=O)O)cc1-c1ccc(C(F)(F)F)cc1)N1CCC(F)(F)C1 (stereo not drawn)
- EC50 [2]: 3.3 µM

SMILES: CC(C)CCC(c1ccc(CC(=O)O)cc1-c1ccc(C(F)(F)F)cc1)N1CC[C@@H](F)C1 (stereo partly drawn)
- EC50 [2]: > 10 µM

SMILES: CC(C)CCC(c1ccc(C(C)(C)C(=O)O)cc1-c1ccc(C(F)(F)F)cc1)N1CCC(C(F)(F)F)CC1 (stereo not drawn)
- concentration at 4 h [3]: 13 µM
- inhibition in vivo at 30 mg/kg ([4]; Mus musculus, CF1, Brain, po, 4 h): 20%
- EC50 [2]: 0.46 µM
- concentration at 4 h [5]: 21 µM

SMILES: CC(C)CCC(c1ccc(CC(=O)O)cc1-c1ccc(C(F)(F)F)cc1)N1CCC(C)CC1 (stereo not drawn)
- EC50 [2]: 10 µM

SMILES: CC(C)CCC(c1ccc(CC(=O)O)cc1-c1ccc(C(F)(F)F)cc1)N1CCC(C(F)(F)F)CC1 (stereo not drawn)
- bioavailability [6]: 100%
- clearance [7]: 3.2 mL/min/kg
- half-life [8]: 2.9 h
- concentration at 4 h [9]: 17 µM
- EC50 [2]: 0.62 µM
- concentration at 4 h [10]: 32 µM
- inhibition in vivo at 50 mg/kg [11]: 35%

SMILES: CC(C)CCC(c1ccc(CC(=O)O)cc1-c1ccc(C(F)(F)F)cc1)N1CCCC(C(F)(F)F)C1 (mixture of isomers)
- EC50 [2]: 0.52 µM

SMILES: CC(C)(C)CC(c1ccc(CC(=O)O)cc1-c1ccc(C(F)(F)F)cc1)N1CCC(C(F)(F)F)CC1 (single isomer, unassigned; enantiomer 1)
- inhibition (INH) ([4]; 30 mg/kg): 25%
- IC50 [2]: 0.7 µM

SMILES: CC(C)CCN(Cc1ccc(C(=O)O)cc1-c1ccc(C(F)(F)F)cc1)c1ccc(C(F)(F)F)cc1
- EC50 [2]: 5.4 µM

SMILES: CC(C)CCC(c1ccc(CC(=O)O)cc1-c1ccc(C(F)(F)F)cc1)N1CCC(C(C)(C)C)CC1 (stereo not drawn)
- EC50 [2]: 1.1 µM

SMILES: CC(C)CCN(Cc1ccc(CC(=O)O)cc1-c1ccc(C(F)(F)F)nc1)[C@H]1CC[C@H](C(C)(C)C)CC1
- EC50 [2]: 5 µM

SMILES: CC(C)CCN(Cc1ccc(CC(=O)O)cc1-c1ccc(C(F)(F)F)cc1)[C@H]1CC[C@H](C(C)(C)C)CC1
- Ratio [12]: 10
- concentration at 4 h [9]: 7 µM
- EC50 [2]: 0.67 µM
- inhibition in vivo at 50 mg/kg [11]: 24%

SMILES: O=C(O)Cc1ccc(CN2CCC(C(F)(F)F)CC2)c(-c2ccc(C(F)(F)F)cc2)c1
- EC50 [2]: > 10 µM

SMILES: CC(C)(C)CC(c1ccc(CC(=O)O)cc1-c1ccc(C(F)(F)F)cc1)N1CCC(C(F)(F)F)CC1 (single isomer, unassigned; enantiomer 2)
- inhibition [13]: inactive

SMILES: CC(C)CCN(Cc1ccc(CC(=O)O)cc1-c1ccc(F)cc1)[C@H]1CC[C@H](C(C)(C)C)CC1
- EC50 [2]: 5.6 µM

From ChEMBL document CHEMBL1926647, “Discovery of 4-aminomethylphenylacetic acids as γ-secretase modulators via a scaffold design approach” (Bioorg Med Chem Lett, 2011)
